The target of test [1] is T1, VIP peptides (Rattus norvegicus, UniProt P01283).
T1 sequence (P01283 whole entry): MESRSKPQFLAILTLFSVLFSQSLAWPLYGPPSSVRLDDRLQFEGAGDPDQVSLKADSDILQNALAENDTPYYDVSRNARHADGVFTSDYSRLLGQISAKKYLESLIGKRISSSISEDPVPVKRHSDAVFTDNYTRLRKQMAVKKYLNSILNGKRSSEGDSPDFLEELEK

Test [2] addresses T2, VIP peptides (Cavia porcellus, UniProt P04566).
T2 sequence (P04566 whole entry): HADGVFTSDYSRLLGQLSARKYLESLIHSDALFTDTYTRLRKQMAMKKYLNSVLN

The target in test [3] is T3, VIP peptides (Homo sapiens, UniProt P01282).
T3 sequence (P01282 whole entry): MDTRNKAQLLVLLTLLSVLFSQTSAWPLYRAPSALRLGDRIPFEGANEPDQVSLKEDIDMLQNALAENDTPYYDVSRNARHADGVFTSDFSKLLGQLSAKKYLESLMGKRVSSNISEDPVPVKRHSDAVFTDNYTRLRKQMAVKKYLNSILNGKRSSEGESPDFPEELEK

Values joined by “and” are separate entries in the source; they are usually repeats but may differ in a detail not shown here. Equal values may be shown once.

The term Ki denotes a measure of affinity in units of concentration, obtained from inhibition or displacement. A low value points to tighter binding. Regarding “H-HSDAVFTDNYTRLRKQMAVAKYLNSILN-NH2 [VIP Ala20]”, the Ki at VIP peptides [1] was 1.7 nM and 3.5 nM and 3.3 nM; on VIP peptides [2], 5.5 nM.
`CC[C@H](C)[C@H](NC(=O)[C@H](CO)NC(=O)[C@H](CC(N)=O)NC(=O)[C@H](CC(C)C)NC(=O)[C@H](Cc1ccc(O)cc1)NC(=O)[C@H](CCCCN)NC(=O)[C@H](CCCCN)NC(=O)[C@@H](NC(=O)[C@H](C)NC(=O)[C@H](CCSC)NC(=O)[C@H](CCC(N)=O)NC(=O)[C@H](CCCCN)NC(=O)[C@H](CCCN=C(N)N)NC(=O)[C@H](CC(C)C)NC(=O)[C@H](CCCN=C(N)N)NC(=O)[C@@H](NC(=O)[C@H](Cc1ccc(O)cc1)NC(=O)[C@H](CC(N)=O)NC(=O)[C@H](CC(=O)O)NC(=O)[C@@H](NC(=O)[C@H](Cc1ccccc1)NC(=O)[C@@H](NC(=O)[C@@H](C)NC(=O)[C@H](CC(=O)O)NC(=O)[C@H](CO)NC(=O)[C@@H](N)Cc1cnc[nH]1)C(C)C)[C@@H](C)O)[C@@H](C)O)C(C)C)C(=O)N[C@@H](CC(C)C)C(=O)N[C@@H](CC(N)=O)C(N)=O` [VIP [D-Ala4]]: the Ki on VIP peptides [1] was 1.1 nM and 7.2 nM and 10.5 nM; at VIP peptides [2], 16.2 nM.
On to `CC[C@H](C)[C@H](NC(=O)[C@H](CO)NC(=O)[C@H](CC(N)=O)NC(=O)[C@H](CC(C)C)NC(=O)[C@H](Cc1ccc(O)cc1)NC(=O)[C@H](CCCCN)NC(=O)[C@H](CCCCN)NC(=O)[C@@H](NC(=O)[C@H](C)NC(=O)[C@H](CCSC)NC(=O)[C@H](CCC(N)=O)NC(=O)[C@H](CCCCN)NC(=O)[C@H](CCCN=C(N)N)NC(=O)[C@H](CC(C)C)NC(=O)[C@H](CCCN=C(N)N)NC(=O)[C@H](NC(=O)[C@H](Cc1ccc(O)cc1)NC(=O)[C@H](CC(N)=O)NC(=O)[C@H](CC(=O)O)NC(=O)[C@@H](NC(=O)[C@H](Cc1ccccc1)NC(=O)[C@@H](NC(=O)[C@H](C)NC(=O)[C@H](CC(=O)O)NC(=O)[C@H](CO)NC(=O)[C@@H](N)Cc1cnc[nH]1)C(C)C)[C@@H](C)O)[C@H](C)O)C(C)C)C(=O)N[C@@H](CC(C)C)C(=O)N[C@@H](CC(N)=O)C(N)=O` [VIP [D-Thr11]], for which the Ki is 54.9 nM and 91.2 nM and 110 nM on VIP peptides [3]; 54.9 nM on VIP peptides [2].
For the compound `CC[C@H](C)[C@H](NC(=O)[C@H](CO)NC(=O)[C@H](CC(N)=O)NC(=O)[C@H](CC(C)C)NC(=O)[C@H](Cc1ccc(O)cc1)NC(=O)[C@@H](CCCCN)NC(=O)[C@H](CCCCN)NC(=O)[C@@H](NC(=O)[C@H](C)NC(=O)[C@H](CCSC)NC(=O)[C@H](CCC(N)=O)NC(=O)[C@H](CCCCN)NC(=O)[C@H](CCCN=C(N)N)NC(=O)[C@H](CC(C)C)NC(=O)[C@H](CCCN=C(N)N)NC(=O)[C@@H](NC(=O)[C@H](Cc1ccc(O)cc1)NC(=O)[C@H](CC(N)=O)NC(=O)[C@H](CC(=O)O)NC(=O)[C@@H](NC(=O)[C@H](Cc1ccccc1)NC(=O)[C@@H](NC(=O)[C@H](C)NC(=O)[C@H](CC(=O)O)NC(=O)[C@H](CO)NC(=O)[C@@H](N)Cc1cnc[nH]1)C(C)C)[C@@H](C)O)[C@@H](C)O)C(C)C)C(=O)N[C@@H](CC(C)C)C(=O)N[C@@H](CC(N)=O)C(N)=O` [VIP [D-Lys21]], the Ki at VIP peptides [3] is 93.3 nM and 118 nM and 105 nM; at VIP peptides [2] it was 100 nM.
Consider `CC[C@@H](C)[C@@H](NC(=O)[C@H](CO)NC(=O)[C@H](CC(N)=O)NC(=O)[C@H](CC(C)C)NC(=O)[C@H](Cc1ccc(O)cc1)NC(=O)[C@H](CCCCN)NC(=O)[C@H](CCCCN)NC(=O)[C@@H](NC(=O)[C@H](C)NC(=O)[C@H](CCSC)NC(=O)[C@H](CCC(N)=O)NC(=O)[C@H](CCCCN)NC(=O)[C@H](CCCN=C(N)N)NC(=O)[C@H](CC(C)C)NC(=O)[C@H](CCCN=C(N)N)NC(=O)[C@@H](NC(=O)[C@H](Cc1ccc(O)cc1)NC(=O)[C@H](CC(N)=O)NC(=O)[C@H](CC(=O)O)NC(=O)[C@@H](NC(=O)[C@H](Cc1ccccc1)NC(=O)[C@@H](NC(=O)[C@H](C)NC(=O)[C@H](CC(=O)O)NC(=O)[C@H](CO)NC(=O)[C@@H](N)Cc1cnc[nH]1)C(C)C)[C@@H](C)O)[C@@H](C)O)C(C)C)C(=O)N[C@@H](CC(C)C)C(=O)N[C@@H](CC(N)=O)C(N)=O` [VIP [D-Ile26]], for which the Ki on VIP peptides [3] is 38.2 nM and 48.9 nM and 33.2 nM; on VIP peptides [2], 72.4 nM.
With “H-ASDAVFTDNYTRLRKQMAVKKYLNSILN-NH2 [VIP Ala1]”, the Ki at VIP peptides [3] is 16.9 nM and 89.1 nM and 64.5 nM; on VIP peptides [2], 95.4 nM.
For `CC[C@H](C)[C@H](NC(=O)[C@H](CO)NC(=O)[C@H](CC(N)=O)NC(=O)[C@H](CC(C)C)NC(=O)[C@H](Cc1ccc(O)cc1)NC(=O)[C@H](CCCCN)NC(=O)[C@H](CCCCN)NC(=O)[C@@H](NC(=O)[C@H](C)NC(=O)[C@H](CCSC)NC(=O)[C@H](CCC(N)=O)NC(=O)[C@H](CCCCN)NC(=O)[C@H](CCCN=C(N)N)NC(=O)[C@@H](CC(C)C)NC(=O)[C@H](CCCN=C(N)N)NC(=O)[C@@H](NC(=O)[C@H](Cc1ccc(O)cc1)NC(=O)[C@H](CC(N)=O)NC(=O)[C@H](CC(=O)O)NC(=O)[C@@H](NC(=O)[C@H](Cc1ccccc1)NC(=O)[C@@H](NC(=O)[C@H](C)NC(=O)[C@H](CC(=O)O)NC(=O)[C@H](CO)NC(=O)[C@@H](N)Cc1cnc[nH]1)C(C)C)[C@@H](C)O)[C@@H](C)O)C(C)C)C(=O)N[C@@H](CC(C)C)C(=O)N[C@@H](CC(N)=O)C(N)=O` [VIP [D-Leu13]], the Ki was 13.5 nM and 23.4 nM and 16.9 nM at VIP peptides [3]; 51.2 nM at VIP peptides [2].
As to `CC[C@H](C)[C@H](NC(=O)[C@H](CO)NC(=O)[C@H](CC(N)=O)NC(=O)[C@H](CC(C)C)NC(=O)[C@H](Cc1ccc(O)cc1)NC(=O)[C@H](CCCCN)NC(=O)[C@H](CCCCN)NC(=O)[C@@H](NC(=O)[C@H](C)NC(=O)[C@H](CCSC)NC(=O)[C@H](CCC(N)=O)NC(=O)[C@H](CCCCN)NC(=O)[C@H](CCCN=C(N)N)NC(=O)[C@H](CC(C)C)NC(=O)[C@H](CCCN=C(N)N)NC(=O)[C@@H](NC(=O)[C@H](Cc1ccc(O)cc1)NC(=O)[C@H](CC(N)=O)NC(=O)[C@H](CC(=O)O)NC(=O)[C@@H](NC(=O)[C@H](Cc1ccccc1)NC(=O)[C@@H](NC(=O)[C@H](C)NC(=O)[C@H](CC(=O)O)NC(=O)[C@H](CO)NC(=O)[C@H](N)Cc1cnc[nH]1)C(C)C)[C@@H](C)O)[C@@H](C)O)C(C)C)C(=O)N[C@@H](CC(C)C)C(=O)N[C@@H](CC(N)=O)C(N)=O` [VIP [D-His1]], the Ki was 0.74 nM and 4.1 nM and 3.7 nM on VIP peptides [3]; 22.4 nM at VIP peptides [2].
Turning to `CC[C@H](C)[C@H](NC(=O)[C@H](CO)NC(=O)[C@H](CC(N)=O)NC(=O)[C@H](CC(C)C)NC(=O)[C@H](Cc1ccc(O)cc1)NC(=O)[C@H](CCCCN)NC(=O)[C@H](CCCCN)NC(=O)[C@@H](NC(=O)[C@@H](C)NC(=O)[C@H](CCSC)NC(=O)[C@H](CCC(N)=O)NC(=O)[C@H](CCCCN)NC(=O)[C@H](CCCN=C(N)N)NC(=O)[C@H](CC(C)C)NC(=O)[C@H](CCCN=C(N)N)NC(=O)[C@@H](NC(=O)[C@H](Cc1ccc(O)cc1)NC(=O)[C@H](CC(N)=O)NC(=O)[C@H](CC(=O)O)NC(=O)[C@@H](NC(=O)[C@H](Cc1ccccc1)NC(=O)[C@@H](NC(=O)[C@H](C)NC(=O)[C@H](CC(=O)O)NC(=O)[C@H](CO)NC(=O)[C@@H](N)Cc1cnc[nH]1)C(C)C)[C@@H](C)O)[C@@H](C)O)C(C)C)C(=O)N[C@@H](CC(C)C)C(=O)N[C@@H](CC(N)=O)C(N)=O` [VIP [D-Ala18]], the Ki was 3.5 nM and 15.4 nM and 12.1 nM on VIP peptides [3]; 17.8 nM on VIP peptides [2].

The values above are taken from BindingDB's records for doi:10.1124/jpet.301.1.37 (National Institutes of Health, 2002).
